Like-named read-outs stand apart in the source and are kept apart here.
What was measured:
TAS2R14 [1] = target: T1, TAS2R14 (Homo sapiens, UniProt Q9NYV8); assay: Fluo-4 calcium mobilization, HEK293-TAS2R14-G16gust44 cells; format: cell-based
T1 construct: full-length cDNA, stably expressed in HEK293 cells with chimeric G16gust44 (G alpha 16 fused with 44 amino acids of gustducin)
T1 sequence (Q9NYV8 1-317): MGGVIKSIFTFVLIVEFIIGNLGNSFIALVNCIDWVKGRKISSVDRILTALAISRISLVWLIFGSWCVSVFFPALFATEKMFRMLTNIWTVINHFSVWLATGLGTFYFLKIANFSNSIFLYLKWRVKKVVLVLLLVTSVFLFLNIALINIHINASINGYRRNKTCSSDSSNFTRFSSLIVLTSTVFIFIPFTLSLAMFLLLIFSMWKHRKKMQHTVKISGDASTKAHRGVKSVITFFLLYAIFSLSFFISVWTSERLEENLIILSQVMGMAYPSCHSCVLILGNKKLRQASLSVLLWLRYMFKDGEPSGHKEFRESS

TAS2R14 [2] = target: T1, TAS2R14; assay: Fluo-4 calcium mobilization, antagonist mode, HEK293-TAS2R14-G16gust44 cells; format: cell-based; settings: in the presence of 10.0 μM aristolochic acid A as agonist, 37 °C, 2.5 mM probenecid in loading buffer

COc1cccc2c1cc([N+](=O)[O-])c1c(C(=O)O)cc3c(c12)OCO3 [AAA, aristolochic acid A]
EC50 (TAS2R14 [1]): 2 µM

C[C@H]1O[C@@H](O[C@H]2CC[C@@]3(C)[C@@H](CC[C@]4(C)[C@@H]3C=CC3=C5CC(C)(C)CC[C@]5(CO)C(O)C[C@]34C)[C@]2(C)CO)[C@H](O)[C@@H](O[C@@H]2O[C@H](CO)[C@@H](O)[C@H](O)[C@H]2O)[C@H]1O (stereo partly drawn) [SSb, Saikosaponin b]
EC50 (TAS2R14 [1]; read-out: EC50): 4.9 µM

sulfamoyl-benzoic acid [SBA]
IC50 (TAS2R14 [2]): 18.5 µM
